In patent US20140309296A1, “BUDIODARONE FORMULATIONS” (Armetheon, Inc., priority 2013, published 2014):
Where a name gives a salt, the structure may show the parent alone.

Tests used:
[1] = 30 ml of 0.9% benzyl alcohol in saline, estimated from animal studies; cited from earlier work
[2] = Budiodarone concentration attainable in hyperconcentrated solutions (Examples 16-18); assay type: physicochemical
Description: The benzyl alcohol/budiodarone tartrate solution is viscous and therefore direct measurement of the budiodarone concentration is difficult. A better way to measure budiodarone concentration in the solution of benzyl alcohol and budiodarone oil or in a hyperconcentrated solution is by using an indirect method. In this example, the volume of the benzyl alcohol/budiodarone mixture was measured, which in turn allowed for the calculation of an accurate budiodarone concentration.
In each of five vials of accurately known volume, budiodarone tartrate (250 mg) and benzyl alcohol (91 μl) were mixed in order to make a 3/1 mixture (mol/mol). Then the solution was mixed thoroughly in order to make a clear solution. This was aided with the help of warming to 50° C. for 3 minutes in order to reduce the viscosity of the mixture. The weight of the vial containing the 3:1 mixture of benzyl alcohol/budiodarone was then recorded. Vial number 1 was filled with silicon oil of density d=0.964 and weighed again. The difference in weight provided the weight of the silicon oil added. This, divided by the density of the silicon oil provided the volume of silicon oil necessary to fill the vial. The difference with the known volume of the vial represents the volume of the benzyl alcohol/budiodarone mixture. To Vial numbers 2, 3, 4, and 5 was added 50, 100, 200, and 400 μl of water, respectively. The contents of the vials were then thoroughly mixed in order to get hyperconcentrated solutions of different volumes and different budiodarone concentrations. The volumes of these hyperconcentrations using silicon oil were measured as described above.
The same experiment as Example 16 was replicated, using mixtures of 5/1 ratio (250 mg of budiodarone tartrate and 152 μl of benzyl alcohol) and various volumes of water added. Using the same procedure as Example 16, a maximum calculated budiodarone concentration of 737 mg/ml and a maximum benzyl alcohol concentration of 45% (v/v) were found.
Similarly, the experiment in Example 16 was replicated, using a 1/1 mixture (250 mg of budiodarone tartrate and 30 μl of benzyl alcohol). A maximum calculated budiodarone concentration of 1,136 mg/ml and a maximum benzyl alcohol concentration of 13.6% (v/v) were found.

[3] = Solubility of budiodarone tartrate in water (Example 2); assay type: physicochemical
Description: The aqueous solubility of budiodarone tartrate was measured in pure distilled water. Budiodarone tartrate (250 mg) was suspended in distilled water (10 ml) and the suspension was vortexed on a VWR Genie 2 vortexer at maximum speed for 3×10 sec duration. The suspension was then stirred for 96 hours at room temperature, protected from light. After 96 hours, the suspension was vortexed again and a 1 ml aliquot was centrifuged at 13,000 rpm for 10 minutes to precipitate all insoluble material. A 40 μl aliquot of the clear supernatant was diluted with 960 μl of methanol (25-fold dilution) and was analyzed by HPLC using Conditions 3.
The amount of budiodarone in solution is found to be 7.04 mg/ml. This figure is the solubility of budiodarone tartrate in water.

[4] = tested on: sodium, potassium, and calcium ion channels; settings: in vivo; cited from earlier work

In the case of `OCc1ccccc1` [benzyl alcohol], the “amount estimated to be safe by rapid intravenous infusion” value [1] is given as “approximately 4.5 mg/kg”, the “maximum benzyl alcohol concentration” value ([2]; 1/1 mixture) is given as 13.6 % (v/v) and the “maximum benzyl alcohol concentration” value ([2]; 3:1 molar ratio of benzyl alcohol/budiodarone) is given as 32.4 % (v/v). The “maximum benzyl alcohol concentration” value ([2]; 5/1 ratio) was 45 % (v/v).
In the case of `CC[C@H](C)OC(=O)Cc1oc2ccccc2c1C(=O)c1cc(I)c(OCCN(CC)CC)c(I)c1` [budiodarone tartrate, (1S)-1-methylpropyl 2-(3-{4-[2-(diethylamino)ethoxy]-3,5-diiodobenzoyl}benzofuran-2-yl)acetate, hydrogen (2R,3R)-2,3-dihydroxybutanedioate], the “degradation products in the clear supernatant” value ([3]; after 96 hours stirring in distilled water at room temperature, HPLC) is reported as “No significant amount of degradation products were detected”, the solubility at 96 h ([3]; distilled water, water, thermodynamic from solid, water, room temperature, read-out: aqueous solubility of budiodarone tartrate) is reported as 7040 µg/mL and the “aqueous solubility of budiodarone tartrate” value ([3]; water, room temperature) is reported as “about 7 mg/ml”.
In the case of `CCN(CC)CCOc1c(I)cc(C(=O)c2c(CC(=O)O)oc3ccccc23)cc1I` [ATI-2000], the “electrophysiological activity of the major metabolite” value [4] is given as “electrophysiologically inactive”.
